Reference: patent US6737383B1, “Herbicidal oxadiazolidines” (priority 1999, dated 2004)

Experiments:
smallflower flatsedge = assay: Test B flood test smallflower flatsedge; assay type: in vivo, Cyperus difformis
Method in brief: (§1)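 Flood test on plants grown to the 2-leaf stage; treated plants kept in greenhouse twelve to sixteen days, then visually rated against controls on a 0 (no effect) to 10 (complete control) scale.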

morningglory = assay: Test B pre/postemergence morningglory; assay type: in vivo, Ipomoea hederacea
Method in brief: (§2)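 Response is a visual 0-to-10 score relative to untreated plants, where 0 means no effect and 10 means complete control, taken twelve to sixteen days after application. Treatments went onto soil at planting and onto foliage of 1- to 4-leaf plants, using a surfactant-containing non-phytotoxic solvent.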

rice = assay: Test B flood test rice; assay type: in vivo, Oryza sativa
Method in brief: as §1

wheat = assay: Test B pre/postemergence wheat; assay type: in vivo, Triticum aestivum
Method in brief: as §2

rape = assay: Test B pre/postemergence rape; assay type: in vivo, Brassica napus
Method in brief: as §2

bamyardgrass = assay: Test B flood test barnyardgrass; assay type: in vivo, Echinochloa crus-galli
Method in brief: as §1

purple nutsedge = assay: Test B pre/postemergence purple nutsedge; assay type: in vivo, Cyperus rotundus
Method in brief: as §2

wild oat = assay: Test B pre/postemergence wild oat; assay type: in vivo, Avena fatua
Method in brief: as §2

blackgrass = assay: Test B pre/postemergence blackgrass; assay type: in vivo, Alopecurus myosuroides
Method in brief: as §2

duck salad = assay: Test B flood test duck salad; assay type: in vivo, Heteranthera limosa
Method in brief: as §1

corn = assay: Test B pre/postemergence corn; assay type: in vivo, Zea mays
Method in brief: as §2

pigweed = assay: Test B pre/postemergence pigweed; assay type: in vivo, Amaranthus retroflexus
Method in brief: as §2

velvetleaf = assay: Test B pre/postemergence velvetleaf; assay type: in vivo, Abutilon theophrasti
Method in brief: as §2

sugar beet = assay: Test B pre/postemergence sugar beet; assay type: in vivo, Beta vulgaris
Method in brief: as §2

cocklebur = assay: Test B pre/postemergence cocklebur; assay type: in vivo, Xanthium strumarium
Method in brief: as §2

crabgrass = assay: Test B pre/postemergence crabgrass; assay type: in vivo, Digitaria sanguinalis
Method in brief: as §2

[1] = Pre-emergence, Rate 1000 g/ha, scale 0 to 10 (0 no effect, 10 complete control)
[2] = Rate 125 g/ha, under heading Pre-emergence, flood test species, visual evaluation after twelve to sixteen days
[3] = Rate 250 g/ha, Pre-emergence (flood test species), scale 0 to 10, 0 is no effect, 10 is complete control
[4] = Rate 500 g/ha, Pre-emergence section of Table B, 0 to 10 scale (0 no effect, 10 complete control)
[5] = Postemergence, Rate 125 g/ha, scale of 0 to 10 where 0 is no effect and 10 is complete control
[6] = Postemergence, Rate 250 g/ha, scale of 0 to 10, 0 is no effect, 10 is complete control
[7] = Postemergence, Rate 500 g/ha, scale of 0 to 10 where 0 is no effect and 10 is complete control
[8] = Postemergence, Rate 1000 g/ha, scale 0 to 10 (0 no effect, 10 complete control)
[9] = Preemergence, Rate 125 g/ha, scale of 0 to 10 where 0 is no effect and 10 is complete control
[10] = Preemergence, Rate 250 g/ha, scale 0 to 10 (0 no effect, 10 complete control)
[11] = Preemergence, Rate 500 g/ha, scale of 0 to 10 where 0 is no effect and 10 is complete control
[12] = Rate 1000 g/ha, Preemergence, scale 0 to 10 (0 no effect, 10 complete control)

## COC(=O)C(C)n1c(=O)on(C(=O)N(c2ccc(Cl)cc2)C(C)C)c1=O (stereo not shown) [Compound 623]
Smallflower flatsedge; [1]
  S. Flatsedge plant response rating: 0
Smallflower flatsedge; [2]
  S. Flatsedge plant response rating (0 to 10 scale, 0 is no effect, 10 is complete control): 0
Smallflower flatsedge; [3]
  S. Flatsedge plant response rating: 0
Smallflower flatsedge; [4]
  S. Flatsedge plant response rating: 0
morningglory; [5]
  Plant response rating, Morningglory: 6
morningglory; [6]
  Morningglory plant response rating: 8
morningglory; [7]
  Plant response rating, Morningglory: 10
morningglory; [8]
  Morningglory plant response rating: 10
morningglory; [9]
  Morningglory plant response rating: 0
morningglory; [10]
  Plant response rating, Morningglory: 0
morningglory; [11]
  Plant response rating, Morningglory: 0
morningglory; [12]
  Plant response rating, Morningglory: 0
rice; [1]
  Rice plant response rating: 0
rice; [2]
  Rice plant response rating (0 to 10 scale, 0 is no effect, 10 is complete control): 0
rice; [3]
  Rice plant response rating: 0
rice; [4]
  Rice plant response rating: 0
wheat; [5]
  Plant response rating, Wheat: 0
wheat; [6]
  Wheat plant response rating: 1
wheat; [8]
  Wheat plant response rating: 1
wheat; [9]
  Wheat plant response rating: 0
wheat; [10]
  Plant response rating, Wheat: 0
wheat; [11]
  Plant response rating, Wheat: 0
wheat; [12]
  Plant response rating, Wheat: 3
rape; [5]
  Plant response rating, Rape: 0
rape; [6]
  Rape plant response rating: 0
rape; [7]
  Plant response rating, Rape: 0
rape; [8]
  Rape plant response rating: 0
rape; [9]
  Rape plant response rating: 0
rape; [10]
  Plant response rating, Rape: 0
rape; [11]
  Plant response rating, Rape: 2
rape; [12]
  Plant response rating, Rape: 2
bamyardgrass; [1]
  Barnyardgrass plant response rating: 0
bamyardgrass; [2]
  Barnyardgrass plant response rating (0 to 10 scale, 0 is no effect, 10 is complete control): 0
bamyardgrass; [3]
  Barnyardgrass plant response rating: 0
bamyardgrass; [4]
  Barnyardgrass plant response rating: 0
Purple nutsedge; [5]
  Plant response rating, Nutsedge: 0
Purple nutsedge; [6]
  Nutsedge plant response rating: 0
Purple nutsedge; [9]
  Nutsedge plant response rating: 0
Purple nutsedge; [10]
  Plant response rating, Nutsedge: 0
Purple nutsedge; [11]
  Plant response rating, Nutsedge: 0
Purple nutsedge; [12]
  Plant response rating, Nutsedge: 0
Wild oat; [5]
  Plant response rating, Wild oats: 0
Wild oat; [6]
  Wild oats plant response rating: 0
Wild oat; [8]
  Wild oats plant response rating: 2
Wild oat; [9]
  Wild oats plant response rating: 0
Wild oat; [10]
  Plant response rating, Wild oats: 0
Wild oat; [11]
  Plant response rating, Wild oats: 2
Wild oat; [12]
  Plant response rating, Wild oats: 2
blackgrass; [5]
  Plant response rating, Blackgrass: 3
blackgrass; [6]
  Blackgrass plant response rating: 4
blackgrass; [7]
  Plant response rating, Blackgrass: 6
blackgrass; [8]
  Blackgrass plant response rating: 7
blackgrass; [9]
  Blackgrass plant response rating: 0
blackgrass; [10]
  Plant response rating, Blackgrass: 0
blackgrass; [12]
  Plant response rating, Blackgrass: 2
Duck salad; [1]
  Ducksalad plant response rating: 0
Duck salad; [2]
  Ducksalad plant response rating (0 to 10 scale, 0 is no effect, 10 is complete control): 0
Duck salad; [3]
  Ducksalad plant response rating: 0
Duck salad; [4]
  Ducksalad plant response rating: 0
corn; [5]
  Plant response rating, Corn: 0
corn; [6]
  Corn plant response rating: 0
corn; [7]
  Plant response rating, Corn: 0
corn; [8]
  Corn plant response rating: 0
corn; [9]
  Corn plant response rating: 0
corn; [10]
  Plant response rating, Corn: 0
corn; [11]
  Plant response rating, Corn: 0
corn; [12]
  Plant response rating, Corn: 0
pigweed; [5]
  Plant response rating, Redroot pigweed: 0
pigweed; [6]
  Redroot pigweed plant response rating: 0
pigweed; [8]
  Redroot pigweed plant response rating: 5
pigweed; [9]
  Redroot pigweed plant response rating: 0
pigweed; [10]
  Plant response rating, Redroot pigweed: 0
pigweed; [11]
  Plant response rating, Redroot pigweed: 0
pigweed; [12]
  Plant response rating, Redroot pigweed: 5
velvetleaf; [5]
  Plant response rating, Velvetleaf: 0
velvetleaf; [6]
  Velvetleaf plant response rating: 0
velvetleaf; [8]
  Velvetleaf plant response rating: 2
velvetleaf; [9]
  Velvetleaf plant response rating: 0
velvetleaf; [10]
  Plant response rating, Velvetleaf: 0
velvetleaf; [11]
  Plant response rating, Velvetleaf: 0
velvetleaf; [12]
  Plant response rating, Velvetleaf: 0
Sugar beet; [5]
  Plant response rating, Sugarbeets: 0
Sugar beet; [6]
  Sugarbeets plant response rating: 0
Sugar beet; [8]
  Sugarbeets plant response rating: 0
Sugar beet; [9]
  Sugarbeets plant response rating: 0
Sugar beet; [10]
  Plant response rating, Sugarbeets: 0
Sugar beet; [11]
  Plant response rating, Sugarbeets: 2
Sugar beet; [12]
  Plant response rating, Sugarbeets: 7
cocklebur; [5]
  Plant response rating, Cocklebur: 0
cocklebur; [6]
  Cocklebur plant response rating: 0
cocklebur; [7]
  Plant response rating, Cocklebur: 0
cocklebur; [8]
  Cocklebur plant response rating: 0
cocklebur; [9]
  Cocklebur plant response rating: 0
cocklebur; [10]
  Plant response rating, Cocklebur: 0
cocklebur; [11]
  Plant response rating, Cocklebur: 0
cocklebur; [12]
  Plant response rating, Cocklebur: 0
crabgrass; [5]
  Plant response rating, Crabgrass: 0
crabgrass; [6]
  Crabgrass plant response rating: 0
crabgrass; [7]
  Plant response rating, Crabgrass: 0
crabgrass; [8]
  Crabgrass plant response rating: 3
crabgrass; [9]
  Crabgrass plant response rating: 0
crabgrass; [10]
  Plant response rating, Crabgrass: 0
crabgrass; [12]
  Plant response rating, Crabgrass: 0
